# Results as given in article PMC6273687, “Design, Synthesis and Biological Evaluation of Novel Primaquine-Cinnamic Acid Conjugates of the Amide and Acylsemicarbazide Type” (Molecules, 2016).
# How the values were obtained:
# [1] = test system: NCI-H460 lung carcinoma cell line; assay: Growth inhibition of tumor cell lines in vitro (MTT / cell counting); format: cell-based, human; settings: NCI-H460, 3 days
# Method: (§1) The experiments were carried out on a murine lymphocytic leukemia cell line (L1210) and five human tumor cell lines: CEM, HeLa, NCI-H460, SW 620 and MCF-7. The cells were cultured as monolayers and maintained in Dulbecco′s modified Eagle medium (DMEM) supplemented with 10% fetal bovine serum (FBS), 2 mM L-glutamine, 100 U/mL penicillin and 100 μg/mL streptomycin in a humidified atmosphere with 5% CO2 at 37 °C.
# (§2) The growth inhibition activity of the compounds was assessed as described previously. The cell lines were inoculated onto a series of standard 96-well microtiter plates on day 0, at 1.5 × 10^4 cells/mL (SW 620, H460) to 2.5 × 10^4 cells/mL (MCF-7, CEM and L1210), depending on the growth of the tumor cell line. Test agents were then added in ten-fold dilutions (10^−8 to 10^−4 M) and the cell cultures were then incubated for 3–4 days with 5% CO2 at 37 °C. Working dilutions of the compounds were freshly prepared on the day of testing.
# (§3) After 3 (MCF-7, SW 620, NCI-H460) or 4 days (CEM, L1210), the cell growth rate was evaluated first light microscopically, then by viable cell counting and/or by performing the MTT assay, which detects dehydrogenase activity in live, not dead, cells. The absorbance (A) was measured on a microplate reader at 570 nm. The absorbance is directly proportional to the number of living, metabolically active cells. […] If however, all of the tested concentrations produce PGs exceeding the respective reference level of effect (e.g., PG value of 50), then the highest tested concentration is assigned as the default value, which is preceded by a “>” sign. Minimum two individual experiments were carried out and each test point was performed in quadruplicate.
# [2] = test system: colon carcinoma HCT 116; assay: Growth inhibition of tumor cell lines in vitro (reference drugs); format: cell-based; settings: colon carcinoma HCT 116 (footnote b, printed in SW 620 column)
# [3] = test system: HeLa cervical carcinoma cell line; assay: Growth inhibition of tumor cell lines in vitro (MTT / cell counting); format: cell-based; settings: Homo sapiens
# Method: as §1, §2, §3
# [4] = test system: CEM acute lymphoblastic leukemia cell line; assay: as above; format: cell-based; settings: Homo sapiens, 96 h, 4 days
# Method: as §1, §2, §3
# [5] = test system: L1210 murine lymphocytic leukemia cell line; assay: as above; format: cell-based; settings: Mus musculus, 96 h; L1210, 4 days
# Method: as §1, §2, §3
# [6] = Interaction with the stable radical DPPH (reducing ability)
# Method: To a solution of DPPH in absolute ethanol the appropriate volume of the compounds (50 or 100 µM final concentrations) dissolved in DMSO was added. The absorbance was recorded at 517 nm after 20 and 60 min at room temperature. The experiments were repeated at least in triplicate and the standard deviation of absorbance was less than 10% of the mean. NDGA was used under the same experimental conditions as a reference compound.
# [7] = molecular target: T1, soybean lipoxygenase (LOX) (Glycine max, UniProt P08170); assay: LOX inhibition study in vitro; format: biochemical; settings: values in parentheses in Table 3
# T1 construct: purchased Sigma-Aldrich
# T1 sequence (P08170 1-839): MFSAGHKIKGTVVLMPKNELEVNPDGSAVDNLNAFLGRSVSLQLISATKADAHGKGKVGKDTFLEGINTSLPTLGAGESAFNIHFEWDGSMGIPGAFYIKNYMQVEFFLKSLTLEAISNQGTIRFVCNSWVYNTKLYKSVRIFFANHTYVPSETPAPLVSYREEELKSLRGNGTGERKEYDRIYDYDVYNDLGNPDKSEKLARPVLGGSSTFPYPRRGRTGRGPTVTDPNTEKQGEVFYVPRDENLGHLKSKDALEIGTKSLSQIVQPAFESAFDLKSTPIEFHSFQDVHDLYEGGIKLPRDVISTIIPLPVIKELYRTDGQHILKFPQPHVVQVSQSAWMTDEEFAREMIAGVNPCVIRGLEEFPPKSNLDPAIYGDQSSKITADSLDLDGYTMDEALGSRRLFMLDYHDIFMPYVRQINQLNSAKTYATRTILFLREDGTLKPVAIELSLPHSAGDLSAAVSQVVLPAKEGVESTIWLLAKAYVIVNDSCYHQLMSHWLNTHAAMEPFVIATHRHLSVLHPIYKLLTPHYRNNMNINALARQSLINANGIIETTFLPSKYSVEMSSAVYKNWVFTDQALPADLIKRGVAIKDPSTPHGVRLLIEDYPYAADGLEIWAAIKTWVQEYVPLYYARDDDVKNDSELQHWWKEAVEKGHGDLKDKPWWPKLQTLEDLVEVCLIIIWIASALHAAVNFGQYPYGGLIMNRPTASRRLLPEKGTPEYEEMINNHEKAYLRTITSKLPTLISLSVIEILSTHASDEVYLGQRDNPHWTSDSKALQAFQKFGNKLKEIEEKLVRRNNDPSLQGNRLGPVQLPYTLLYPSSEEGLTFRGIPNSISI
# Method: LOX inhibitory assay in vitro was accomplished as described previously. The test compounds (stock solutions 10 mM in DMSO) were incubated at room temperature with sodium linoleate (c = 0.1 mM) and 0.2 mL of LOX enzyme solution (1/9 × 10^−4 m/V in saline). The conversion of sodium linoleate to 13-hydroperoxylinoleic acid was measured at 234 nm and compared with the reference inhibitor. Several concentrations were used for the IC50 determination.
# [8] = test system: human coronavirus (229E); assay: microbe, parasite or virus in culture; format: cell-based; settings: read-out: EC50 (concentration required to reduce virus-induced cytopathogenicity by 50%), HEL cell cultures
# [9] = test system: MCF-7 breast carcinoma cell line; assay: Growth inhibition of tumor cell lines in vitro (MTT / cell counting); format: cell-based, human; settings: for IC50: MCF-7, 3 days
# Method: as §1, §2, §3
# [10] = Inhibition of linoleic acid peroxidation (AAPH-induced); settings: 5 × 10^−5 M
# Method: For initiating the lipid peroxidation free radical AAPH was used. Final solution in the UV cuvette consisted of 10 μL linoleate sodium solution (c = 16 mM), 0.93 mL phosphate buffer (c = 0.05 M), pH 7.4, thermostated at 37 °C. 50 μL AAPH solution (c = 40 mM) and 10 μL of the tested compounds were added. The experiment was performed at 37 °C under air. The oxidation of linoleic acid sodium salt was monitored at 234 nm. The assays were repeated at least in triplicate and the standard deviation of absorbance was less than 10% of the mean. Trolox was used under the same experimental conditions as a reference compound.
# [11] = test system: SW 620 colon carcinoma cell line; assay: Growth inhibition of tumor cell lines in vitro (MTT / cell counting); format: cell-based; settings: Homo sapiens, 72 h; SW 620, 3 days
# Method: as §1, §2, §3
SMILES,"IC50 ([1]; Homo sapiens, 72 h)",IC50 ([2]; Homo sapiens),IC50 [3],IC50 [4],IC50 [5],"DPPH-reducing ability RA (%) ([6]; 1 × 10^−4 M, 20 min)","DPPH-reducing ability RA (%) ([6]; 1 × 10^−4 M, 60 min)","DPPH-reducing ability RA (%) ([6]; 5 × 10^−5 M, 20 min)","DPPH-reducing ability RA (%) ([6]; 5 × 10^−5 M, 60 min)",IC50 [7],EC50 [8],"IC50 ([9]; Homo sapiens, MCF7, 72 h)",LP Inhibition (%) [10],IC50 [11],fold higher activity than PQ ([9]; MCF-7),fold higher activity than the anticancer reference drugs ([9]; MCF-7),IC50 [1],IC50 [9],IC50 [2]
"O=c1[nH]cc(F)c(=O)[nH]1 [5-FU, 5-fluorouracil, reference compound]",3 ± 0.3 µM,4 ± 0.7 µM,0.54 ± 0.1 µM,18 ± 5 µM,0.5 ± 0.2 µM,,,,,,,,,,,,,,
"COc1cc(NC(C)CCCNC(=O)NNC(=O)/C(C)=C/c2ccccc2)c2ncccc2c1 (stereo not drawn) [7b, (E)-4-(4-(6-Methoxyquinolin-8-ylamino)pentyl)-1-(2-methyl-3-phenylacryloyl)semicarbazide]",50 ± 4 µM,,47 ± 6 µM,25 ± 14 µM,53 ± 5 µM,84%,99%,42%,100%,100 µM,15 µM,16 ± 9 µM,62%,9.5 ± 0.9 µM,,,,,
"COc1cc(NC(C)CCCNC(=O)NNC(=O)/C=C/c2ccc(OC)c(OC)c2)c2ncccc2c1 (stereo not drawn) [7d, (E)-1-(3-(3,4-Dimethoxyphenyl)acryloyl)-4-(4-(6-methoxyquinolin-8-ylamino)pentyl)semicarbazide]",32 ± 21 µM,,92 ± 30 µM,93 ± 46 µM,40 ± 14 µM,100%,100%,55%,100%,10 µM,,1.9 ± 1.8 µM,88%,25 ± 9 µM,,,,,
"COc1cc(NC(C)CCCNC(=O)NNC(=O)/C=C/c2cc(OC)c(OC)c(OC)c2)c2ncccc2c1 (stereo not drawn) [7e, (E)-4-(4-(6-Methoxyquinolin-8-ylamino)pentyl)-1-(3-(3,4,5-trimethoxyphenyl)acryloyl)semicarbazide]",63 ± 2 µM,,70 ± 2 µM,54 ± 12 µM,57 ± 5 µM,46%,100%,60%,100%,43 µM,,1.4 ± 0.1 µM,86%,48 ± 17 µM,,,,,
"COc1cc(NC(C)CCCNC(=O)NNC(=O)/C=C/c2ccc3c(c2)OCO3)c2ncccc2c1 (stereo not drawn) [7f, (E)-1-(3-(Benzo[d][1,3]dioxo-5-yl)acryloyl)-4-(4-(6-methoxyquinolin-8-ylamino)pentyl)semicarbazide]",27 ± 3 µM,,31 µM,7.4 ± 2.1 µM,4.8 ± 0.2 µM,74%,100%,47%,100%,55 µM,12.5 µM,0.6 ± 0.3 µM,88%,17 ± 5 µM,,,,,
"COc1cc(NC(C)CCCNC(=O)NNC(=O)/C=C/c2ccccc2F)c2ncccc2c1 (stereo not drawn) [7h, (E)-1-(3-(2-Fluorophenyl)acryloyl)-4-(4-(6-methoxyquinolin-8-ylamino)pentyl)semicarbazide]",12 ± 0.2 µM,,46 ± 2 µM,15 ± 2 µM,40 ± 4 µM,52%,100%,61%,100%,41 µM,,5.9 ± 2 µM,67%,12 ± 4 µM,,,,,
"COc1cc(NC(C)CCCNC(=O)NNC(=O)/C=C/c2cccc(C(F)(F)F)c2)c2ncccc2c1 (stereo not drawn) [7i, (E)-4-(4-(6-Methoxyquinolin-8-ylamino)pentyl)-1-(3-(3-(trifluoromethyl)phenyl)acryloyl)semicarbazide]",18 ± 3 µM,,10 ± 1 µM,10 ± 1 µM,9.4 ± 4.8 µM,96%,73%,71%,100%,42.5 µM,7.9 µM,2.3 ± 0.2 µM,84%,16 ± 5 µM,,,,,
"COc1cc(NC(C)CCCNC(=O)NNC(=O)/C=C/c2ccc(C(F)(F)F)cc2)c2ncccc2c1 (stereo not drawn) [7j, (E)-4-(4-(6-Methoxyquinolin-8-ylamino)pentyl)-1-(3-(4-(trifluoromethyl)phenyl)acryloyl)semicarbazide]",34 ± 2 µM,,28 ± 12 µM,9.4 ± 5.6 µM,27 µM,100%,95%,42%,79%,35 µM,9.5 µM,0.03 ± 0.02 µM,50%,40 ± 5 µM,900 fold,100-to 500 fold,,,
"COc1cc(NC(C)CCCNC(=O)NNC(=O)/C=C/c2cc(C(F)(F)F)cc(C(F)(F)F)c2)c2ncccc2c1 (stereo not drawn) [7k, (E)-1-(3-(3,5-Bis(trifluoromethyl)phenyl)acryloyl)-4-(4-(6-methoxyquinolin-8-ylamino)pentyl)semicarbazide]",48 ± 2 µM,,30 ± 23 µM,17 ± 5 µM,30 ± 17 µM,98%,97%,72%,100%,67.5 µM,8.4 µM,3.2 ± 0.8 µM,55%,32 ± 4 µM,,,,,
"N.N.[Cl][Pt][Cl] [CIS, cisplatin, reference compound]",,,,,,,,,,,,,,,,,1 ± 0.1 µM,10 ± 1 µM,7 ± 2 µM
"COc1cc(NC(C)CCCN)c2ncccc2c1 (stereo not drawn) [PQ, primaquine]",30 ± 7 µM,20 ± 6 µM,,,,,,,,,,28 ± 10 µM,,,,,,,
